# Data taken from PMC3517986 (Biochemical Journal, 2012).
# “Also recorded” adds a separate entry of the source.
# Tests used:
# WDR5 [1] = molecular target: T1, WDR5 (Homo sapiens, UniProt P61964); assay: ITC; assay type: binding
# WDR5 [2] = molecular target: T1, WDR5; assay type: binding; details: fluorescence polarization, 40 nM FITC-WIN peptide, 5 μM WDR5, triplicate
# G9a = assay: HMT selectivity panel: G9a; assay type: biochemical, human; details: concentrations up to 100 μM
# EHMT1 = assay: HMT selectivity panel: EHMT1; assay type: biochemical, human; details: concentrations up to 100 μM
# PRMT3 = assay: HMT selectivity panel: PRMT3; assay type: biochemical, human; details: concentrations up to 100 μM
# PRMT5_MEP50 complex = assay: HMT selectivity panel: PRMT5; assay type: biochemical, human; details: concentrations up to 100 μM
# SUV39H2 = assay: HMT selectivity panel: SUV39H2; assay type: biochemical, human; details: concentrations up to 100 μM
# [3] = molecular target: MLL–WDR5–RbBP5 core complex (trimeric complex) (Homo sapiens, UniProt P61964); assay: Methyltransferase activity of trimeric MLL complex; assay type: biochemical
# SETD8 = assay: HMT selectivity panel: SETD8; assay type: biochemical, human; details: concentrations up to 100 μM
# SETD7 = assay: HMT selectivity panel: SETD7; assay type: biochemical, human; details: concentrations up to 100 μM
# [4] = molecular target: MLL–WDR5–RbBP5–ASH2L complex (Homo sapiens, UniProt P61964); assay: Methyltransferase activity of tetrameric MLL complex; assay type: biochemical; details: tetrameric MLL complex at 10, 50 and 125 nM; not calculated owing to incomplete fitting
Kd (WDR5 [1]) [µM],Kdis (Kdisplacement) (WDR5 [2]) [µM],"IC50 ([3]; IC50, 125 nM (0.125 μM) trimeric MLL complex) [µM]","IC50 ([3]; IC50, 500 nM trimeric MLL complex) [µM]","IC50 ([3]; IC50, 1000 nM trimeric MLL complex) [µM]",IC50 relative to trimeric complex [4],Compound,inhibitory effect (G9a),inhibitory effect (EHMT1),inhibitory effect (PRMT3),inhibitory effect (PRMT5_MEP50 complex),inhibitory effect (SUV39H2),inhibitory effect (SETD8),inhibitory effect (SETD7)
5.5 ± 0.6,12 ± 1,,,,,"CN1CCN(c2ccc([N+](=O)[O-])cc2NC(=O)c2ccccc2)CC1 [WDR5-0101, N-(2-(4-methylpiperazin-1-yl)-5 nitrophenyl)benzamide]",,,,,,,
0.45 ± 0.02,3.0 ± 0.1,39 ± 10,83 ± 10,280 ± 12,significantly higher,"COC(=O)c1ccc(N2CCN(C)CC2)c(NC(=O)c2cccc(OC)c2)c1 [WDR5-0103, methyl-3-(3-methoxybenzamido)-4-(4-methylpiperazin-1-yl)benzoate]",no inhibitory effect,no inhibitory effect,no inhibitory effect,no inhibitory effect,no inhibitory effect,no inhibitory effect,no inhibitory effect; also recorded: did not affect methyltransferase activity
